Experiments:
[1] = biological target: T1, mouse EP2 receptor (Mus musculus, UniProt Q62053); experiment: Measurement of EP2 agonist activity (cAMP concentration) in EP2-CHO cells; type: cell-based; settings: cAMP production, read-out: Agonist activity on various prostanoid receptors: EC50 value, EP2
T1 construct: expressed in transfected cells; host or cells: CHO (EP2-CHO)
Description: (§1) (1-1) Measurement of Agonist Activity on Various Mouse Prostanoid Receptors
(§2) Using CHO cells (FP-CHO, EP2-CHO, EP4-CHO and IP-CHO, respectively) in which various mouse prostanoid receptors were forcibly expressed, respectively, agonist activity of test compounds on various prostanoid receptors was studied employing an intracellular calcium concentration regarding FP, and an intracellular cyclic AMP (hereinafter, abbreviated as cAMP) production amount regarding IP, EP2 and EP4 as an index.
(§3) The test compound and a control substance (PGE2, PGF2α, and iroprost) were dissolved with dimethyl sulfoxide (DMSO) to prepare a 10 mmol/L solution. Regarding the prepared 10 mmol/L solution, upon use, the 10 mmol/L solution was thawed, stepwisely-diluted using DMSO, and diluted with a buffer solution for measurement or a buffer solution for measurement 2, which was subjected to an experiment.
(§4) Cells forcibly expressing various mouse prostanoid receptors were standing-cultured at 37° C. in the presence of 5% CO2 using an α-MEM medium (Sigma) (for culturing FP-CHO, EP2-CHO and EP4-CHO) containing inactivated (56° C., 30 minutes) 9.8 vol % dialysed-FBS (Invitrogen) and penicillin-streptomycin-glutamine (GIBCO-BRL), or nucleic acid-containing α-MEM (Sigma) (for culturing IP-CHO) containing inactivated (56° C., 30 minutes) 9.8 vol % dialysed-FBS (Invitrogen) and penicillin-streptomycin glutamine (Invitrogen). Subculturing was performed by the following method.
(§5) The medium was removed, and washed with a phosphate-buffered physiological saline not containing Ca^2+ and Mg^2+ once. A suitable amount of trypsin-EDTA (Invitrogen) was added, this was incubated at 37° C. for about 3 minutes, cells were peeled, and a medium having a volume which is 10-fold a volume of trypsin-EDTA was added to stop an enzymatic reaction. After cells were recovered (120 g) into a centrifuging tube, and centrifuged at room temperature for 3 minutes, the supernatant was removed. Cells were suspended in a suitable amount of a medium, and seeded in a culturing flask. […]

[2] = biological target: T2, mouse IP receptor (Mus musculus, UniProt P43252); experiment: Measurement of IP agonist activity (cAMP concentration) in IP-CHO cells; type: cell-based; settings: cAMP production, read-out: Agonist activity on various prostanoid receptors: EC50 value, IP
T2 construct: expressed in transfected cells; host or cells: CHO (IP-CHO)
T2 sequence (P43252 whole entry): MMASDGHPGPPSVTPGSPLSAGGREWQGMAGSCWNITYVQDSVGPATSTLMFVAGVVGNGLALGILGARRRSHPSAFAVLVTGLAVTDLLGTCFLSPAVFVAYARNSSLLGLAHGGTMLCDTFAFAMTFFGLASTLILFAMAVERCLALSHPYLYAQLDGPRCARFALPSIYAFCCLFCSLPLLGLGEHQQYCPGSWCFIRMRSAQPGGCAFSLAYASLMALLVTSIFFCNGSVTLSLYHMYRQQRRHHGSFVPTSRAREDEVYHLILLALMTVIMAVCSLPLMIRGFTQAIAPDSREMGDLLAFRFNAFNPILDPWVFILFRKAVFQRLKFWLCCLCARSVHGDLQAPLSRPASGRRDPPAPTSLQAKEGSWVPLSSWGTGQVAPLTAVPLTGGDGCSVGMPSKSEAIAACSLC
Description: as §1, §2
as §3, with “experiment. […]” for “experiment.”

[3] = biological target: T3, mouse FP receptor (Mus musculus, UniProt P43117); experiment: Measurement of FP agonist activity (intracellular calcium concentration) in FP-CHO cells; type: cell-based; settings: read-out: Agonist activity on various prostanoid receptors: EC50 value, FP
T3 construct: expressed in transfected cells; host or cells: CHO (FP-CHO)
T3 sequence (P43117 whole entry): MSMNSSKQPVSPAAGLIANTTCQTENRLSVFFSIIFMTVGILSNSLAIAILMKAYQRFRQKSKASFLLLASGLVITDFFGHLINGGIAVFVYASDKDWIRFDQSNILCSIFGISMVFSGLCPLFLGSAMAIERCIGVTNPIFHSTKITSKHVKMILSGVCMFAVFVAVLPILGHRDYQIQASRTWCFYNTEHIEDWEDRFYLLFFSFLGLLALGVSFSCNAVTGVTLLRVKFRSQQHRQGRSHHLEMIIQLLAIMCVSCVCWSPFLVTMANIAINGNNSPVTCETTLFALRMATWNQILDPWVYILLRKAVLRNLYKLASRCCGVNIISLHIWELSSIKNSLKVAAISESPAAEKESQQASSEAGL
Description: as §1, §2
as §3, with “experiment. […]” for “experiment.”
The 96-well UV plate was set in a fluorescent spectral photometer (FDSS-3000, Hamamatsu Photonics K.K.), and an intracellular calcium concentration was measured. […]

[4] = biological target: T4, mouse EP4 receptor (Mus musculus, UniProt P32240); experiment: Measurement of EP4 agonist activity (cAMP concentration) in EP4-CHO cells; type: cell-based; settings: cAMP production, read-out: Agonist activity on various prostanoid receptors: EC50 value, EP4
T4 construct: expressed in transfected cells; host or cells: CHO (EP4-CHO)
T4 sequence (P32240 whole entry): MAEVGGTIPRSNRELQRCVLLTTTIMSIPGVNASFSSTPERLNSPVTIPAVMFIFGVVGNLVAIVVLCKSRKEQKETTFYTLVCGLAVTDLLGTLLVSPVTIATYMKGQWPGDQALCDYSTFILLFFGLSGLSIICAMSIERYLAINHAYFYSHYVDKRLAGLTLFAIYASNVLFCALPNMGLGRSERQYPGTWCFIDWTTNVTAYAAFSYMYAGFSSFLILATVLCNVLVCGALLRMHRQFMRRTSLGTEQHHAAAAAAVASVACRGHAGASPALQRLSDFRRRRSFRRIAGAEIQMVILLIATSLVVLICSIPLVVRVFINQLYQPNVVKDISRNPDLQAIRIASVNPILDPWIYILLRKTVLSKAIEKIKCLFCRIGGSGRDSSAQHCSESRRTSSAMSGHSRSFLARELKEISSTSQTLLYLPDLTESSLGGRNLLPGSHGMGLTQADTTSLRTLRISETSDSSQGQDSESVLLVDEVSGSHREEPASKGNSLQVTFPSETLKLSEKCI
Description: as §1, §2, §3, §4, §5

[5] = system: male rabbit (NewZealandWhite); experiment: Aqueous humor protein concentration in rabbit after ocular instillation; type: in vivo; settings: ocular instillation 30 μL, 1000 μg/mL, 0 to 8 hours (FIG. 2)
Experimental: (§6) (2-2) Assessment of Ocular Stimulating Property and Aqueous Humor Protein Concentration
To one eye of a male rabbit (NewZealandWhite, 2.0 to 3.0 kg) was ocular-instilled 30 μL of the compound of Example 16 (1) which had been adjusted to 0.1% (w/v) with a base (containing citrate buffer pH 6.5, 0.5% polysorbate 80, 1% propylene glycol, 0.01% benzalkonium chloride), respectively. Thereafter, an aqueous humor in anterior chamber after 0, 1, 2, 4, 6 and 8 hours from ocular instillation was collected, and a protein concentration in the humor was measured. As comparative compounds, the aforementioned methyl ester of the compound of Example 12 described in Patent Literature 2 (i.e. compound of Example 10 described in Patent Literature 2) (hereinafter, abbreviated as Comparative Compound C in some cases) and the aforementioned methyl ester of the Comparative Compound B (i.e. optically active body (2S isomer) of the compound of Example 1 (F) described in Patent Literature 1) (hereinafter, abbreviated as Compound D in some cases) were used.
(§7) Regarding any test compound, a dose of 1000 μg/mL was administered and action of each active body was assessed.

[6] = system: male dog (TOYO Beagle); experiment: Intraocular pressure lowering action in dog after ocular instillation; type: in vivo; settings: ocular instillation 30 μL, maximum among 2, 4, 6, 8, 24 hours, dose 30 μg/mL Example 16 (1), 50 μg/mL latanoprost
Experimental: (2-1) Intraocular Pressure Lowering Action
To one eye of a male dog (TOYO Beagle) which had been sufficiently acclimated in advance was ocular-instilled 30 μL of the compound of Example 16 (1) which had been adjusted with a base (containing citrate buffer pH 6.5, 0.5% polysorbate 80, 1% propylene glycol, 0.01% benzalkonium chloride) to 0.003% (w/v), respectively. The other eye was not treated. As a positive control compound, latanoprost which is the known compound was used.
Thereafter, an ocular surface anesthetic (Benoxil eye drops 0.4%, Santen Pharmaceutical Co., Ltd.) was subjected to ocular instillation to locally anesthetize eyes, and an intraocular pressure of each test compound before ocular instillation and after 2, 4, 6, 8, and 24 hours from ocular instillation was measured. An intraocular pressure was measured using a pneumatic applanation flat tonometer (Model 30 Classic, REICHERT). An intraocular pressure lowering rate (%) was calculated by the following equation.

[7] = system: male rabbit (NewZealandWhite); experiment: Assessment of ocular stimulating property (Draize score) in rabbit; type: in vivo; settings: ocular instillation 30 μL, 1000 μg/mL, observed 0 to 8 hours (FIG. 1)
Experimental: as §6
To one eye of a male rabbit (NewZealandWhite, 2.0 to 3.0 kg) was ocular-instilled 30 μL of the compound of Example 16 (1) which had been adjusted to 0.1% (w/v) with a base (containing citrate buffer pH 6.5, 0.5% polysorbate 80, 1% propylene glycol, 0.01% benzalkonium chloride), respectively. Thereafter, an aqueous humor in anterior chamber after 0, 1, 2, 4, 6 and 8 hours from ocular instillation was collected, and a protein concentration in the humor was measured. […]
Observation of the ocular general state was performed after 0, 1, 2, 4, 6 and 8 hours from ocular instillation, and visual remark of cornea, iris, and conjunctiva was observed according to determination criteria of the Draize method. A total of points of the resulting assessment points of each item (=A1×B1×5+A2×5+(A3+B3+C3)×2) was assessed as a Draize score. […]
as §7

[8] = system: male monkey (crab-eating monkey); experiment: Intraocular pressure lowering action in monkey under consciousness; type: in vivo; settings: conscious crab-eating monkey, ocular instillation 30 μL, 10 μg/mL Comparative Compound C, 30 μg/mL Example 16 (1)
Experimental: (2-3) Intraocular Pressure Lowering Action in Monkey Under Consciousness
To a left eye of a male monkey (crab-eating monkey) under consciousness was ocular instillation-administered 30 μL of a solution obtained by adjusting a test substance using the same base as that described above and, to a right eye was ocular instillation-administered 30 μL of a solution of only a base as a control, respectively. An intraocular pressure after administration was measured with time from administration initiation to after 24 hours. Upon measurement of an intraocular pressure, a crab-eating monkey was fixed on a monkey chair, and the monkey was anesthetized by ocular instillation-administering an ocular surface anesthetic (Benoxil eye drops 0.4% Santen Pharmaceutical Co., Ltd.). After mounting of a blepharostat (Handaya Co., Ltd.), an intraocular pressure of both eyes was measured (5 to 8 examples per group) using a pneumatic applanation flat tonometer (Model 30 Classic, REICHERT). A difference in an intraocular pressure value between control eyes and eyes to which a test substance had been administered, was calculated as an intraocular pressure lowering rate using the following equation, and sustainability of intraocular eye lowering action was assessed using a maximum intraocular pressure lowering rate during measurement and an intraocular pressure lowering rate after 24 hours. […]

T1 sequence (Q62053 whole entry): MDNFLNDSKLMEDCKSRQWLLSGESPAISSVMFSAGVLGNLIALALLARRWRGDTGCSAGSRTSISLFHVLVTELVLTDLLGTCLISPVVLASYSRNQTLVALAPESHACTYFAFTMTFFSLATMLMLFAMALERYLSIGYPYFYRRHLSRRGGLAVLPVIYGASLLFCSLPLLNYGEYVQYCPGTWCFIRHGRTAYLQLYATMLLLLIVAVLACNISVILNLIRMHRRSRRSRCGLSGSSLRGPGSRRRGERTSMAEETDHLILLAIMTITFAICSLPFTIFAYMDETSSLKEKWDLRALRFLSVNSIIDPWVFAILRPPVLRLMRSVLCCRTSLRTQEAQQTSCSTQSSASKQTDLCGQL

SMILES: CCCCC[C@H](O)/C=C/[C@@H]1[C@H]2CC[C@H](CCCC(=O)O)S[C@H]2C[C@H]1O [Comparative Compound B, 4-{(2S,4aR,5R,6R,7aS)-6-hydroxy-5-[(1E,3S)-3-hydroxy-1-octen-1-yl]octahydrocyclopenta[b]thiopyran-2-yl}butanoic acid, reference compound]
- EC50 [1]: 0.022 µM
- EC50 [2]: 0.89 µM
- EC50 [3]: 0.0089 µM
- EC50 [4]: 0.38 µM

SMILES: O=C(O)CCC[C@H]1CC[C@@H]2[C@@H](/C=C/[C@@H](O)COc3ccccc3)[C@H](O)C[C@@H]2S1 [Example 15, 4-{(2S,4aR,5R,6R,7aS)-6-hydroxy-5-[(1E,3R)-3-hydroxy-4-phenoxy-1-buten-1-yl]octahydrocyclopenta[b]thiopyran-2-yl}butanoic acid]
- EC50 [1]: > 100 µM
- EC50 [2]: 6.1 µM
- EC50 [3]: 0.0034 µM
- EC50 [4]: > 100 µM

SMILES: O=C(O)CCC[C@H]1CC[C@@H]2[C@@H](/C=C/[C@@H](O)COc3ccccc3)[C@H](O)C[C@@H]2O1 [Comparative Compound A]
- EC50 [1]: > 100 µM
- EC50 [4]: 6.1 µM

SMILES: CC(C)OC(=O)CCC[C@H]1CC[C@@H]2[C@@H](/C=C/[C@@H](O)COc3ccccc3)[C@H](O)C[C@@H]2S1 [Example 16 (1), 2-Propanyl 4-{(2S,4aR,5R,6R,7aS)-6-hydroxy-5-[(1E,3R)-3-hydroxy-4-phenoxy-1-buten-1-yl]octahydrocyclopenta[b]thiopyran-2-yl}butanoate]
- Action on protein concentration in aqueous humor [5]: no action of raising a protein concentration in an aqueous humor
- Maximum of intraocular pressure lowering rate [6]: 34.2%
- Classification of ocular stimulating property from maximum of the Draize score [7]: non-stimulating substance (A Draize score of 0 or more and 5 or less was a non-stimulating substance)
- Intraocular pressure lowering rate after 24 hours ([8]; 24 hours): 23.1 ± 2.7%
- Maximum intraocular pressure lowering rate [8]: 25.3 ± 2.4%

From US9150537B2, “Bicyclic compound and use thereof for medical purposes” (ONO PHARMACEUTICAL CO., LTD., priority 2011, dated 2015)
